The text below walks through data of ChEMBL document CHEMBL1908284, “Rational use of in vitro P-glycoprotein assays in drug discovery” (J Pharmacol Exp Ther, 2001).

The term Papp denotes the rate of passage across a membrane or cell layer, normalised by area and donor concentration. A lower Papp goes with slow passage. What is called Papp B→A is the apparent permeability from the basolateral to the apical side of a cell layer. The term efflux ratio denotes the permeability from basolateral to apical divided by that in the opposite direction, in the common usage. A word on the Papp A→B: it is how fast a substance crosses the layer from the apical side.

The target in series [1] is T1, ATP-dependent translocase ABCB1 (Homo sapiens, UniProt P08183). The conditions noted are these: dog.
Description: (§1) Apparent permeability (Papp) from apical to basolateral side determined in MDR1-MDCKII cells
For series [2], the target named is T2, ATP-dependent translocase ABCB1 (MDR1) (Homo sapiens, UniProt P08183). The series is described as follows: in vitro. The conditions noted are these: dog, MDCK-MDR1, Papp.
Description: (§2) Apparent permeability (Papp) from basolateral to apical side determined in MDR1-MDCKII cells
The target in series [3] is T2, ATP-dependent translocase ABCB1 (MDR1). The series is described as follows: in vitro. The conditions noted are these: dog, MDCK-MDR1, Ratio_Papp.
Description: Ratio of apparent permeability from basolateral to apical side over apical to basolateral side determined in MDR1-MDCKII cells
The target of series [4] is T1, ATP-dependent translocase ABCB1. The conditions noted are these: dog. This is another data set of the same source.
Description: as §2
The target of series [5] is T2, ATP-dependent translocase ABCB1 (MDR1). In words: in vitro. The conditions noted are these: dog, MDCK-MDR1, Papp. The source holds these as a separate data set.
Description: as §1
For series [6], the target named is T1, ATP-dependent translocase ABCB1. The conditions noted are these: spodoptera frugiperda, sf9, 20 µM.
Description: Drug-stimulated Pgp ATPase activity ratio determined in MDR1-Sf9 cell membranes with test compound at a concentration of 20uM
Series [7] has the same target. In words: TP_TRANSPORTER: ATP hydrolysis in MDR1-expressing Sf9 cells. Type of series: functional.
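Throughout, for Ratio ATPase activity: Compound-stimulated ATPase activity measured in membrane preparations of MDR1-expressing Sf9 cells.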

T2 sequence (P08183 whole entry): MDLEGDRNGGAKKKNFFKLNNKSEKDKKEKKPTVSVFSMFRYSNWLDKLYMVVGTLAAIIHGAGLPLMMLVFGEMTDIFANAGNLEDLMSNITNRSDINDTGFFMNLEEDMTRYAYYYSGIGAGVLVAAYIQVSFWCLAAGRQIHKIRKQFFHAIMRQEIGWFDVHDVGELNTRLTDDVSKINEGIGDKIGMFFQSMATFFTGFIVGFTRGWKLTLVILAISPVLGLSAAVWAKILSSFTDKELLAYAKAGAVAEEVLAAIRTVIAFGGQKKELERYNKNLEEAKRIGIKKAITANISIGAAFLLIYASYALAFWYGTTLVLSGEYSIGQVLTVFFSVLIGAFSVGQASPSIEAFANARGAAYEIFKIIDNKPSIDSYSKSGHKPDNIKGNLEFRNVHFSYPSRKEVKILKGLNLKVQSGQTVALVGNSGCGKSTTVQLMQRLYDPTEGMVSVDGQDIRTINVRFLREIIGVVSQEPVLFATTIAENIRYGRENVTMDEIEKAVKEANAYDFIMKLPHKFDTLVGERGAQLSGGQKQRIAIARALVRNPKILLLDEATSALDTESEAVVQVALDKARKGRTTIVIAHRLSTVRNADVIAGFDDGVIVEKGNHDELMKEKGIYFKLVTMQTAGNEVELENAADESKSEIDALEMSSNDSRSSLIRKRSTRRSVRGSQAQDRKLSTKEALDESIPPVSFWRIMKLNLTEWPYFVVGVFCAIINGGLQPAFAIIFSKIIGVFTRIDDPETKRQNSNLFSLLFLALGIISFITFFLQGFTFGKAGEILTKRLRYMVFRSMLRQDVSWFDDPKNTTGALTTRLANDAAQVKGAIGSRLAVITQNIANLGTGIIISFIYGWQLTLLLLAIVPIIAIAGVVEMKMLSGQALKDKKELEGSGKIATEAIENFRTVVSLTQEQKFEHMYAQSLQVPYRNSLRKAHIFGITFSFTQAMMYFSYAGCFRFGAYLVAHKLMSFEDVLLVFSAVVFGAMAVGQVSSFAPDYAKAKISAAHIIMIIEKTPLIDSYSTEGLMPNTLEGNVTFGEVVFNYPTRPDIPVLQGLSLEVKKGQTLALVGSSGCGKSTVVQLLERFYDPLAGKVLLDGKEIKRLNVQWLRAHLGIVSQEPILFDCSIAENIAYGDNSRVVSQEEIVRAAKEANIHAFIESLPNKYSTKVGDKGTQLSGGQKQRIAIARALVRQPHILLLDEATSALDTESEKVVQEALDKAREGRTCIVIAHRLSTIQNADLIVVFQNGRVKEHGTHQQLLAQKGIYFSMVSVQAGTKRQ
T1 sequence (P08183 whole entry): as above

Regarding `CC(C)NCC(O)COc1cccc2ccccc12` (stereo unspecified) [PROPRANOLOL], the Papp in series [1] (MDCK-MDR1) turned out to be 49.6 ×10⁻⁶ cm/s; in series [4] (MDCK-MDR1), 51.4 ×10⁻⁶ cm/s. Further, the apparent permeability from basolateral to apical (Papp B→A) in series [2] is 51.4 ×10⁻⁶ cm/s. In series [3], the efflux ratio was determined as 1.04. The same compound displayed a Papp A→B in series [5] of 49.6 ×10⁻⁶ cm/s. The same compound gave a Ratio_ATPase activity in series [6] of 1.33.

`OC[C@@H](O)[C@@H](O)[C@H](O)[C@H](O)CO` [MANNITOL]: the Papp in series [1] (mdr1-mdckii) was determined as 1.13 ×10⁻⁶ cm/s; in series [4] (mdr1-mdckii) it was 0.915 ×10⁻⁶ cm/s. In series [2], the apparent permeability from basolateral to apical (Papp B→A) stood at 0.915 ×10⁻⁶ cm/s. Besides, in series [3], the efflux ratio amounted to 0.82. In series [5], this compound gave a Papp A→B of 1.13 ×10⁻⁶ cm/s. In addition, the Ratio_ATPase activity in series [6] stood at 1.25.

Regarding `CC(C)CN(C[C@@H](O)[C@H](Cc1ccccc1)NC(=O)O[C@H]1CCOC1)S(=O)(=O)c1ccc(N)cc1`, the Papp in series [1] (mdr1-mdckii) turned out to be 2.17 ×10⁻⁶ cm/s; in series [4] (mdr1-mdckii), 70.3 ×10⁻⁶ cm/s. In series [2], this compound came in with a Papp B→A of 98.7 ×10⁻⁶ cm/s. In series [5], this compound displayed a Papp A→B of 3.73 ×10⁻⁶ cm/s.

With `CC(=O)O[C@H]1C(=O)[C@@]2(C)[C@H]([C@H](OC(=O)c3ccccc3)[C@]3(O)C[C@H](OC(=O)[C@H](O)[C@@H](NC(=O)c4ccccc4)c4ccccc4)C(C)=C1C3(C)C)[C@]1(OC(C)=O)CO[C@@H]1C[C@@H]2O` [PACLITAXEL], the Activity entry in series [7] was “substrate [+]”. In addition, the basolateral-to-apical permeability (Papp B→A) in series [2] was found to be 13.5 ×10⁻⁶ cm/s. In addition, the efflux ratio in series [3] was > 108. Moreover, the apical-to-basolateral permeability (Papp A→B) in series [5] was < 0.125 ×10⁻⁶ cm/s. Further, the Ratio_ATPase activity in series [6] is recorded as 2.63.

`CN1CCC[C@@H]1Cc1c[nH]c2ccc(CCS(=O)(=O)c3ccccc3)cc12`: in series [7], the Activity entry is “substrate [+]”. This compound returned a Papp B→A in series [2] of 57.8 ×10⁻⁶ cm/s. Also, in series [3], the efflux ratio amounted to 31.5. For the same compound, in series [5], the apical-to-basolateral permeability (Papp A→B) was 1.84 ×10⁻⁶ cm/s. The same compound gave a Ratio_ATPase activity in series [6] of 2.22.
